How the values were obtained:
Settings in all cases: sulfur source concentration 200 µM; S. cerevisiae S288C/BY sul1Δ sul2Δ soa1Δ with transporter ortholog inserted at SOA1 locus; sulfur-free B medium, 4% glucose, pH 6.5, sole sulfur source
soa1 del [1] = assay: maximal growth rate with compound as sole sulfur source (OD600 per h); higher = better growth / uptake of the sulfur source
Protocol: (§1)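 S. cerevisiae sul1Δ sul2Δ soa1Δ strains expressing 20 fungal SOA1 orthologs (or no transporter, 'soa1 del') were grown in liquid sulfur-free B medium, 4% glucose, pH 6.5 (7 mM K2HPO4). The strains were sulfur-starved for 3 days beforehand. Each sulfur compound was the sole sulfur source at 200 µM (sulfate also at 40 mM). OD600 curves of duplicate cultures were averaged and fitted (logistic / Richards, GroFit) to give maximal growth rate, maximal density and lag phase; temperature not stated.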

[2] = test system: Ogataea parapolymorpha_XP_013935289; assay: as above
Protocol: as §1

[3] = test system: Aspergillus nidulans_XP_661733; assay: as above
Protocol: as §1

[4] = test system: Aspergillus nidulans_XP_660670; assay: as above
Protocol: as §1

[5] = test system: Saccharomyces cerevisiae_SOA1; assay: as above
Protocol: as §1

[6] = test system: Aspergillus nidulans_CBF74694; assay: as above
Protocol: as §1

[7] = test system: Aspergillus nidulans_CBF80346; assay: as above
Protocol: as §1

[8] = test system: Aspergillus nidulans (IAM 2006)_astA; assay: as above
Protocol: as §1

[9] = test system: Saccharomyces eubayanus_SOA1; assay: as above
Protocol: as §1

[10] = test system: Metarhizium robertsii_XP_007822519; assay: as above
Protocol: as §1

[11] = test system: Saccharomyces uvarum_SOA2; assay: as above
Protocol: as §1

[12] = test system: Saccharomyces eubayanus_SOA2; assay: as above
Protocol: as §1

[13] = test system: Metarhizium robertsii_XP_007823832; assay: as above
Protocol: as §1

[14] = test system: Ogataea parapolymorpha_XP_013936897; assay: as above
Protocol: as §1

[15] = test system: Ogataea parapolymorpha_XP_013932458; assay: as above
Protocol: as §1

[16] = test system: Aspergillus nidulans_XP_660563; assay: as above
Protocol: as §1

[17] = test system: Metarhizium robertsii_XP_007821441; assay: as above
Protocol: as §1

[18] = test system: Saccharomyces uvarum_SOA1; assay: as above
Protocol: as §1

[19] = test system: Aspergillus nidulans_XP_661711; assay: as above
Protocol: as §1

[20] = test system: Aspergillus nidulans_XP_681611; assay: as above
Protocol: as §1

[21] = test system: Fusarium oxysporum_ENH65823; assay: as above
Protocol: as §1

soa1 del [22] = assay: maximal culture density with compound as sole sulfur source (OD600); higher = better growth
Protocol: as §1

[23] = test system: Ogataea parapolymorpha_XP_013935289; assay: as above
Protocol: as §1

[24] = test system: Aspergillus nidulans_XP_661733; assay: as above
Protocol: as §1

[25] = test system: Aspergillus nidulans_XP_660670; assay: as above
Protocol: as §1

[26] = test system: Saccharomyces cerevisiae_SOA1; assay: as above
Protocol: as §1

[27] = test system: Aspergillus nidulans_CBF74694; assay: as above
Protocol: as §1

[28] = test system: Aspergillus nidulans_CBF80346; assay: as above
Protocol: as §1

[29] = test system: Aspergillus nidulans (IAM 2006)_astA; assay: as above
Protocol: as §1

[30] = test system: Saccharomyces eubayanus_SOA1; assay: as above
Protocol: as §1

[31] = test system: Metarhizium robertsii_XP_007822519; assay: as above
Protocol: as §1

[32] = test system: Saccharomyces uvarum_SOA2; assay: as above
Protocol: as §1

[33] = test system: Saccharomyces eubayanus_SOA2; assay: as above
Protocol: as §1

[34] = test system: Metarhizium robertsii_XP_007823832; assay: as above
Protocol: as §1

[35] = test system: Ogataea parapolymorpha_XP_013936897; assay: as above
Protocol: as §1

[36] = test system: Ogataea parapolymorpha_XP_013932458; assay: as above
Protocol: as §1

[37] = test system: Aspergillus nidulans_XP_660563; assay: as above
Protocol: as §1

[38] = test system: Metarhizium robertsii_XP_007821441; assay: as above
Protocol: as §1

[39] = test system: Saccharomyces uvarum_SOA1; assay: as above
Protocol: as §1

[40] = test system: Aspergillus nidulans_XP_661711; assay: as above
Protocol: as §1

[41] = test system: Aspergillus nidulans_XP_681611; assay: as above
Protocol: as §1

[42] = test system: Fusarium oxysporum_ENH65823; assay: as above
Protocol: as §1

[43] = test system: Ogataea parapolymorpha_XP_013935289; assay: lag phase before growth; higher = slower start of growth
Protocol: as §1

[44] = test system: Saccharomyces cerevisiae_SOA1; assay: as above
Protocol: as §1

[45] = test system: Saccharomyces uvarum_SOA2; assay: as above
Protocol: as §1

SMILES: O=S(=O)(O)CCO [Isethionate]
- maximal growth rate (soa1 del [1]): 0.00355
- maximal growth rate [2]: 0.0699
- maximal growth rate [3]: 0.00489
- maximal growth rate [4]: 0.00369
- maximal growth rate [5]: 0.0707
- maximal growth rate [6]: 0.00301
- maximal growth rate [7]: 0.00382
- maximal growth rate [8]: 0.0178
- maximal growth rate [9]: 0.0612
- maximal growth rate [10]: 0.0519
- maximal growth rate [11]: 0.0695
- maximal growth rate [12]: 0.0595
- maximal growth rate [13]: 0.0144
- maximal growth rate [14]: 0.0049
- maximal growth rate [15]: 0.00421
- maximal growth rate [16]: 0.00647
- maximal growth rate [17]: 0.00324
- maximal growth rate [18]: 0.0659
- maximal growth rate [19]: 0.00367
- maximal growth rate [20]: 0.00854
- maximal growth rate [21]: 0.00374
- maximal culture density (soa1 del [22]): 0.235
- maximal culture density [23]: 1.59
- maximal culture density [24]: 0.269
- maximal culture density [25]: 0.232
- maximal culture density [26]: 1.61
- maximal culture density [27]: 0.195
- maximal culture density [28]: 0.213
- maximal culture density [29]: 0.489
- maximal culture density [30]: 1.58
- maximal culture density [31]: 1.59
- maximal culture density [32]: 1.71
- maximal culture density [33]: 1.7
- maximal culture density [34]: 0.501
- maximal culture density [35]: 0.289
- maximal culture density [36]: 0.242
- maximal culture density [37]: 0.332
- maximal culture density [38]: 0.223
- maximal culture density [39]: 1.59
- maximal culture density [40]: 0.233
- maximal culture density [41]: 0.373
- maximal culture density [42]: 0.233

SMILES: NCCS(=O)(=O)O [Taurine]
- maximal growth rate (soa1 del [1]): 0.00366
- maximal growth rate [2]: 0.0523
- maximal growth rate [3]: 0.00417
- maximal growth rate [4]: 0.00383
- maximal growth rate [5]: 0.0291
- maximal growth rate [6]: 0.00281
- maximal growth rate [7]: 0.00339
- maximal growth rate [8]: 0.0198
- maximal growth rate [9]: 0.00369
- maximal growth rate [10]: 0.00328
- maximal growth rate [11]: 0.0111
- maximal growth rate [12]: 0.00328
- maximal growth rate [13]: 0.0141
- maximal growth rate [14]: 0.0048
- maximal growth rate [15]: 0.00448
- maximal growth rate [16]: 0.00581
- maximal growth rate [17]: 0.0033
- maximal growth rate [18]: 0.00382
- maximal growth rate [19]: 0.0038
- maximal growth rate [20]: 0.0063
- maximal growth rate [21]: 0.00349
- lag phase before growth [43]: 7.77 h
- lag phase before growth [44]: 9.53 h
- lag phase before growth [45]: 7.75 h
- maximal culture density (soa1 del [22]): 0.217
- maximal culture density [23]: 1.6
- maximal culture density [24]: 0.228
- maximal culture density [25]: 0.214
- maximal culture density [26]: 1.4
- maximal culture density [27]: 0.187
- maximal culture density [28]: 0.217
- maximal culture density [29]: 0.515
- maximal culture density [30]: 0.284
- maximal culture density [31]: 0.213
- maximal culture density [32]: 0.828
- maximal culture density [33]: 0.258
- maximal culture density [34]: 0.498
- maximal culture density [35]: 0.317
- maximal culture density [36]: 0.245
- maximal culture density [37]: 0.311
- maximal culture density [38]: 0.219
- maximal culture density [39]: 0.292
- maximal culture density [40]: 0.215
- maximal culture density [41]: 0.305
- maximal culture density [42]: 0.195
